Residues, ends and D or L forms follow the SMILES beside them. Some results are limits rather than exact numbers.

The test system of this data set is human liver microsomes, metabolic stability half-life. Briefly: NCATS Human Liver Microsomal (HLM) Stability Profiling. Particulars: higher = more stable; screened at 1 µM (by protocol). The source says:
Assay submitter (PI): Dr. Pranav Shah
NIH Center for Advancing Translational Sciences
Pharmacokinetic issues were the leading cause of drug attrition, accounting for approximately 40% of all cases before the turn of the century. To this end, several high-throughput in vitro assays like microsomal stability have been developed to evaluate the pharmacokinetic profiles of compounds in early stages of drug discovery. At NCATS, a single-point rat liver microsomal (RLM) stability assay is used as a Tier I assay, while human liver microsomal (HLM) stability is employed as a Tier II assay. While it is beneficial to have compound libraries screened for HLM stability, the increasing magnitude of hits routinely generated, and the time- and re-source-intensive nature of the assay makes it important to find alternatives. One strategy is to rely on in silico models that have been developed using data generated from these assays. Herein, we describe the development of an HLM stability prediction model using our in-house dataset of ~7,000 compounds, employing both traditional and advanced machine learning methods. Additionally, the strong correlation between our RLM and HLM data was further reinforced by the fact that our HLM model performance improved after adding RLM stability predictions as an input descriptor. […] The best model along with a subset of our dataset has been made publicly accessible on the NCATS@ADME website for the benefit of the greater drug discovery community.
Microsomal Stability Assay
The substrate depletion method, also called the in vitro t1/2 method was used to analyze test compounds. Incubation and liquid handling were carried out using a previously described method (Shah et al., 2016). Briefly, each reaction mixture (110 µL) consisted of a test article (1 µM), human liver microsomes (0.5 mg/mL), and NADPH regenerating system in phosphate buffer at pH 7.4. Samples were incubated in 384-well plates at 37 degrees C for 0, 5, 10, 15, 30 and 60 min. At each time point, 10 µL of the incubation mixture was aspirated into another 384-well plate which contained cold acetonitrile (ACN) with internal standard (albendazole). All plates were centrifuged at 3000 rpm for 20 min at 4 degrees C, and the supernatants were transferred to a 384-well injection plate. Sample quantification and analysis was performed using a previously described method (Shah et al., 2016, Siramshetty et al., 2020).
1: Shah, P. et al. An Automated High-Throughput Metabolic Stability Assay Using an Integrated High-Resolution Accurate Mass Method and Automated Data Analysis Software. Drug Metab Dispos 44, 1653-1661 (2016).
2: Siramshetty et al. Retrospective assessment of rat liver microsomal stability at NCATS: data and QSAR models. Sci Rep 26;10(1):20713 (2020).

The term half-life denotes the time in which the quantity being followed falls by half. The compound `COc1ccc(C2Nc3ccccc3C(=O)N2Cc2ccco2)cc1COc1ccc(NC(C)=O)cc1` (stereo not given) came in with a half-life of 2.15 min.

Turning to `CCC(=O)N[C@@H]1Cc2ccccc2[C@H](c2ccccc2)C1`, the half-life came to 46.1 min.

Consider `CNC(=O)[C@H](Cc1ccccc1)NC(=O)[C@H](CC(C)C)[C@H](CSc1cccs1)C(=O)NO`, for which the half-life turned out to be 110 min.

`Cc1c(C(=O)Nc2cccc(C(F)(F)F)c2)cc(-c2ccccc2)n1CCCN1CCOCC1` displayed a half-life of 8.06 min.

The compound `COc1ccc(-n2nc(C3CCCN(CC4CCCCC4)C3)[nH]c2=O)cc1` (stereo not given) gave a half-life of 108 min.

For `O=C(O)COC(=O)Cc1ccccc1Nc1c(Cl)cccc1Cl`, the half-life was 2.83 min.

The compound `CC(C)Cc1ccc(CC(=O)O)cc1` displayed a half-life of over 120 min.

Take `CC#C[C@@H](CC(=O)O)c1ccc(OCc2ccc(CN3CCC4(C=Cc5ccccc54)CC3)s2)cc1`: the half-life was found to be 25.1 min.

In the case of `O=C(O)Cn1nnc(-c2cc(N3CCC(Oc4cc(F)ccc4Br)CC3)no2)n1`, the half-life is over 120 min.

For `CC(=O)OCC(=O)[C@@]12OC(C)(C)O[C@@H]1C[C@H]1[C@@H]3C[C@H](F)C4=CC(=O)C=C[C@]4(C)[C@@]3(F)[C@@H](O)C[C@@]12C`, the half-life worked out at 44.3 min.

With `COc1ccc(C(=O)n2c(C)c(Cc3cccc(O[C@@H](C)C(=O)O)c3)c3cc(OC(F)(F)F)ccc32)cc1`, the half-life was over 120 min.

The compound `COP(N)(=O)SC` (stereo not given) showed a half-life of 51.6 min.

Take `CCCCCCCCCCCCCCCCCCN(C)C`: the half-life was over 120 min.

Compound `CCC(=O)c1ccc2c(c1)N(CCCN(C)C)c1ccccc1S2` had a half-life of 15.4 min.

The compound `COc1ccc(-c2cn3cccnc3n2)cc1NC(=O)c1cc(C)cc(C)c1` had a half-life of 20.7 min.

In the case of `CCCc1ccc(C(=O)O)cc1`, the half-life was over 120 min.

For `CC(C)(C)c1coc([C@@H]2COCCN2Cc2cccc(C#N)c2)n1`, the half-life was 10.4 min.

Consider `COc1cc(Nc2nc3ccccc3nc2NS(=O)(=O)c2ccc(NC(=O)c3ccc(OC)c(C)c3)cc2)cc(OC)c1`, for which the half-life was over 120 min.

With `COc1cc(N2CCN(C)CC2)ccc1Nc1nccc(-c2cn(C)c3cnccc23)n1`, the half-life is over 120 min.

`O=c1cc(N2CCOCC2)oc2c(-c3cccc(F)c3)nccc12`: the half-life turned out to be 34.5 min.

`CCc1ccc(-n2c(SCc3cccc(F)c3)nc3[nH]ncc3c2=O)cc1` displayed a half-life of 80.5 min.

`O=C(CC1N=C2c3ccccc3N=C(SCc3ccc(Cl)cc3)N2C1=O)NCCc1ccccc1` (stereo not given) had a half-life of 4.19 min.

As for `COC(=O)C1=C(C)NC(C)=C(C(=O)O[C@@H]2CCCN(Cc3ccccc3)C2)[C@@H]1c1cccc([N+](=O)[O-])c1`, the half-life worked out at 1.93 min.

As to `CCOc1ccc(S(=O)(=O)N2CCCCCC2)c2ccccc12`, the half-life worked out at 6.52 min.

`CCCOc1ccc(-c2nc(OC)c3ccccc3n2)cc1` displayed a half-life of 14.7 min.

Take `O=C1CN2CCOC2(c2ccccc2Cl)c2cc(Cl)ccc2N1` (stereo not given): the half-life was 4.56 min.

In turn, `Cc1ccc(C(=O)N2CCc3cc(CNS(=O)(=O)c4cccs4)ccc32)cc1` registered a half-life of 5.17 min.

Regarding `NC(=O)N1c2ccccc2C=Cc2ccccc21`, the half-life was over 120 min.

Turning to `COCc1c(Cl)ccc2c1CC[C@H]2c1ncc[nH]1`, the half-life is 115 min.

As for `NC(=O)c1cnc(N[C@@H]2CCCC[C@H]2N)nc1Nc1cccc(-n2nccn2)c1`, the half-life is 90.7 min.

For the compound `COc1cccc(NC(=O)c2oc3ccc(S(=O)(=O)N4CCC5(CC4)OCCO5)cc3c2C)c1`, the half-life came to 12.2 min.

Regarding `NC(=O)c1ccccc1O`, the half-life was over 120 min.

`CC(=O)NC[C@H]1CN(c2ccc(N3CCSCC3)c(F)c2)C(=O)O1`: the half-life was over 120 min.

Compound `N#Cc1ccc(-c2ccc(S(=O)(=O)Nc3cccc(N)n3)cc2)cc1` had a half-life of over 120 min.

Compound `CN1CCN(c2cccc(Nc3nc4c(-c5ccc(S(C)(=O)=O)cc5)cccn4n3)c2)CC1` gave a half-life of over 120 min.

`CC(C)(N)c1ncc(-c2ccc(OC(F)(F)F)cc2)[nH]1` showed a half-life of over 120 min.

Take `CC1(C)C(=O)N(c2ccc(C#N)c(C(F)(F)F)c2)C(=S)N1c1ccc(C(N)=O)c(F)c1`: the half-life was over 120 min.

Compound `O=C(c1ccc(F)cc1)C1CCN(CCn2c(=S)[nH]c3ccccc3c2=O)CC1` displayed a half-life of 8.98 min.

For the compound `Cc1cncn1CCc1nc2c3ccccc3nc(SCC(=O)Nc3cccc(Cl)c3)n2n1`, the half-life amounted to 11.6 min.

Consider `Fc1ccc(C2CCNC[C@H]2COc2ccc3c(c2)OCO3)cc1` (stereo not given in full), for which the half-life is 28.9 min.

Regarding `CN(C(=O)C(c1ccccc1)c1ccccc1)[C@H](CN1CC[C@H](O)C1)c1ccccc1`, the half-life turned out to be 9.29 min.

For `CCN1CCN(C(=O)Cc2ccc(Nc3ncc(F)c(Nc4ccc(C(=O)Nc5ccccc5Cl)cc4)n3)cc2)CC1`, the half-life was determined as 4.23 min.

In turn, `CC[C@H](C)C(=O)O[C@H]1C[C@@H](C)C=C2C=C[C@H](C)[C@H](CC[C@@H]3C[C@@H](O)CC(=O)O3)[C@H]21` gave a half-life of 7.05 min.

In turn, `COc1ccc(C(=O)NC2CCN(c3cnn(CC4CC4)c(=O)c3)CC2)c(OC)n1` showed a half-life of over 120 min.

Take `Cc1ccc2c(c1)c1c3n2CCNC3CCC1` (stereo not given): the half-life was 8.9 min.

In the case of `Cn1c(=O)c2c(nc(CN3CCN(C(=O)C4CC4)CC3)n2Cc2ccccc2Cl)n(C)c1=O`, the half-life amounted to 24.1 min.

As for `N[C@@H](CC(=O)Nc1ccc(Oc2cc(F)c(F)cc2Br)cc1)C(=O)O`, the half-life is over 120 min.

The compound `CC(C)c1ccc(NC(=O)C(c2ccccc2)N(C)C(=O)Cc2c[nH]c3ccccc23)cc1` (stereo not given) gave a half-life of 7.38 min.

`Cc1cccc(C)c1NC(=O)c1ccccc1C(=O)O` registered a half-life of over 120 min.

Compound `COc1ccc2c(c1)c(CC(=O)OCC(=O)O)c(C)n2C(=O)c1ccc(Cl)cc1` showed a half-life of over 120 min.

`COC(=O)[C@H](Cc1ccccc1)NC(=O)[C@@H](N)CC(=O)O` (H-Asp-Phe-OMe): the half-life worked out at 40.7 min.

Regarding `Clc1ccc(CO/N=C(\Cn2ccnc2)c2ccc(Cl)cc2Cl)c(Cl)c1`, the half-life worked out at 55.1 min.

`Clc1cccc(C(c2ccc3nc[nH]c3c2)n2ccnc2)c1` (stereo not given) showed a half-life of over 120 min.

In turn, `C[C@]12Cc3cn[nH]c3C[C@@H]1CC[C@@H]1[C@@H]2CC[C@@]2(C)[C@H]1CC[C@]2(C)O` showed a half-life of 24 min.

For the compound `CCC(CC)Nc1nc(C)c(-c2ccc(OC(F)(F)F)cc2OC)nc1OC`, the half-life is 20.5 min.

In turn, `CN(C)S(=O)(=O)c1ccc(S(=O)(=O)N(Cc2ccco2)Cc2ccccc2Cl)cc1` registered a half-life of 3.33 min.

The compound `CN(C)CCN1C(=O)c2ccccc2N(C)c2ccccc21` returned a half-life of over 120 min.

Consider `NC(=NCCCCCCN=C(N)/N=C(\N)Nc1ccc(Cl)cc1)/N=C(\N)Nc1ccc(Cl)cc1`, for which the half-life is over 120 min.

The compound `COCC(=O)Nc1c(I)c(C(=O)NCC(O)CO)c(I)c(C(=O)N(C)CC(O)CO)c1I` (stereo not given) yielded a half-life of 84.2 min.

As for `CN(C)C(CCOc1cccc2ccccc12)c1ccccc1` (stereo not given), the half-life turned out to be 12.8 min.

`CCSC(=O)N1CCCCCC1` displayed a half-life of 27.7 min.

Take `Fc1ccc2[nH]c(CN3CCN(c4ccccn4)CC3)cc2c1`: the half-life came out at 14.3 min.

For the compound `C#Cc1cccc(Nc2ncnc3cc(OCCOC)c(OCCO)cc23)c1`, the half-life was over 120 min.

The compound `NS(=O)(=O)c1ccc(Cc2c(-c3cccc(-c4ccccc4)c3)nn(-c3nc(C(=O)O)cs3)c2CC2CC2)cc1` returned a half-life of 83.6 min.

On to `COc1ccc(CNC(=O)C2CCCN(c3nnc(C)c4c(C)n(-c5ccc(C)cc5)nc34)C2)cc1` (stereo not given), for which the half-life came out at 5.53 min.

`CCN1CCN(Cc2ccc(NC(=O)c3ccc(C)c(/C=C/c4cnc5[nH]ccc5c4OC)c3)cc2C(F)(F)F)CC1` gave a half-life of over 120 min.

Compound `CC(C)=CCC1C(=O)N(c2ccccc2)N(c2ccccc2)C1=O` had a half-life of over 120 min.

The compound `C1Cc2[nH]nc(-c3nn[nH]n3)c2C1` yielded a half-life of over 120 min.

`CC(C)c1ccc(-n2ncc3c(=O)n(CC(=O)Nc4cc(F)ccc4Cl)cnc32)cc1` displayed a half-life of 23.9 min.

Compound `CCC(=O)NS(=O)(=O)c1ccc(-c2c(-c3ccccc3)noc2C)cc1` gave a half-life of 48.5 min.

Consider `Clc1ccccc1-c1nc(-c2ccncc2)no1`, for which the half-life amounted to 35.8 min.

Compound `CCc1noc(-c2ccc(NCc3ccccc3)c([N+](=O)[O-])c2)n1` had a half-life of 4.39 min.

The compound `COc1cccc(CCc2ccccc2OCC(CN(C)C)OC(=O)CCC(=O)O)c1` (stereo not given) registered a half-life of 38.8 min.

In turn, `CCCCN(CCCC)C(=O)CN1C[C@H](c2ccc3c(c2)OCO3)[C@@H](C(=O)O)[C@@H]1c1ccc(OC)cc1` came in with a half-life of 72.6 min.

For `Cc1ccc(N2CCN(C(=O)C3CCN(c4ncnc5c4nc4n5CCCCC4)CC3)CC2)c(C)c1`, the half-life is over 120 min.

The values are drawn from PubChem BioAssay AID1963597 (National Center for Advancing Translational Sciences (NCATS), 2024).
